ChEMBL document CHEMBL3046329, “Sensitivity to silthiofam, tebuconazole and difenoconazole of Gaeumannomyces graminis var. tritici isolates from China” (Pest Manag Sci, 2012)
Converted amounts (≈) assume the structure as drawn.

Tests used:
Format in all cases: functional, organism-based
Gaeumannomyces tritici [1] = experiment: Antifungal activity against sithiofam-resistant Gaeumannomyces graminis var. tritici isolate HN10 expressing C1 genetic cluster assessed as reduction in fungal colony diameter after 4 days; details: isolate HN10, 96 h
Gaeumannomyces tritici [2] = experiment: Antifungal activity against sithiofam-sensitive Gaeumannomyces graminis var. tritici isolate AH07 expressing C2 genetic cluster assessed as reduction in fungal colony diameter after 4 days; details: isolate AH07, 96 h
Gaeumannomyces tritici [3] = experiment: Antifungal activity against sithiofam-sensitive Gaeumannomyces graminis var. tritici isolate HN32 expressing C2 genetic cluster assessed as reduction in fungal colony diameter after 4 days; details: isolate HN32, 96 h
Gaeumannomyces tritici [4] = experiment: Antifungal activity against sithiofam-resistant Gaeumannomyces graminis var. tritici isolate HN04 expressing C1 genetic cluster assessed as reduction in fungal colony diameter after 4 days; details: isolate HN04, 96 h
Gaeumannomyces tritici [5] = experiment: Antifungal activity against sithiofam-sensitive Gaeumannomyces graminis var. tritici isolate HN30 expressing C2 genetic cluster assessed as reduction in fungal colony diameter after 4 days; details: isolate HN30, 96 h
Gaeumannomyces tritici [6] = experiment: Antifungal activity against sithiofam-sensitive Gaeumannomyces graminis var. tritici isolate AH11 expressing C2 genetic cluster assessed as reduction in fungal colony diameter after 4 days; details: isolate AH11, 96 h
Gaeumannomyces tritici [7] = experiment: Antifungal activity against sithiofam-resistant Gaeumannomyces graminis var. tritici isolate HN07 expressing C1 genetic cluster assessed as reduction in fungal colony diameter after 4 days; details: isolate HN07, 96 h
Gaeumannomyces tritici [8] = experiment: Antifungal activity against sithiofam-resistant Gaeumannomyces graminis var. tritici isolate HN01 expressing C1 genetic cluster assessed as reduction in fungal colony diameter after 4 days; details: isolate HN01, 96 h
Gaeumannomyces tritici [9] = experiment: Antifungal activity against sithiofam-sensitive Gaeumannomyces graminis var. tritici isolate AH03 expressing C2 genetic cluster assessed as reduction in fungal colony diameter after 4 days; details: isolate AH03, 96 h
Gaeumannomyces tritici [10] = experiment: Antifungal activity against sithiofam-resistant Gaeumannomyces graminis var. tritici isolate HN13 expressing C1 genetic cluster assessed as reduction in fungal colony diameter after 4 days; details: isolate HN13, 96 h
Gaeumannomyces tritici [11] = experiment: Antifungal activity against sithiofam-resistant Gaeumannomyces graminis var. tritici isolate HN08 expressing C1 genetic cluster assessed as reduction in fungal colony diameter after 4 days; details: isolate HN08, 96 h
Gaeumannomyces tritici [12] = experiment: Antifungal activity against sithiofam-sensitive Gaeumannomyces graminis var. tritici isolate HN22 expressing C2 genetic cluster assessed as reduction in fungal colony diameter after 4 days; details: isolate HN22, 96 h
Gaeumannomyces tritici [13] = experiment: Antifungal activity against sithiofam-resistant Gaeumannomyces graminis var. tritici isolate AH14 expressing C1 genetic cluster assessed as reduction in fungal colony diameter after 4 days; details: isolate AH14, 96 h
Gaeumannomyces tritici [14] = experiment: Antifungal activity against sithiofam-sensitive Gaeumannomyces graminis var. tritici isolate AH16 expressing C2 genetic cluster assessed as reduction in fungal colony diameter after 4 days; details: isolate AH16, 96 h
Gaeumannomyces tritici [15] = experiment: Antifungal activity against sithiofam-sensitive Gaeumannomyces graminis var. tritici isolate HN31 expressing C3 genetic cluster assessed as reduction in fungal colony diameter after 4 days; details: isolate HN31, 96 h
Gaeumannomyces tritici [16] = experiment: Antifungal activity against sithiofam-sensitive Gaeumannomyces graminis var. tritici isolate SD03 expressing C2 genetic cluster assessed as reduction in fungal colony diameter after 4 days; details: isolate SD03, 96 h
Gaeumannomyces tritici [17] = experiment: Antifungal activity against sithiofam-sensitive Gaeumannomyces graminis var. tritici isolate HN29 expressing C2 genetic cluster assessed as reduction in fungal colony diameter after 4 days; details: isolate HN29, 96 h
Gaeumannomyces tritici [18] = experiment: Antifungal activity against sithiofam-sensitive Gaeumannomyces graminis var. tritici isolate SD01 expressing C2 genetic cluster assessed as reduction in fungal colony diameter after 4 days; details: isolate SD01, 96 h
Gaeumannomyces tritici [19] = experiment: Antifungal activity against sithiofam-resistant Gaeumannomyces graminis var. tritici isolate AH13 expressing C1 genetic cluster assessed as reduction in fungal colony diameter after 4 days; details: isolate AH13, 96 h
Gaeumannomyces tritici [20] = experiment: Antifungal activity against sithiofam-sensitive Gaeumannomyces graminis var. tritici isolate HN14 expressing C2 genetic cluster assessed as reduction in fungal colony diameter after 4 days; details: isolate HN14, 96 h
Gaeumannomyces tritici [21] = experiment: Antifungal activity against sithiofam-resistant Gaeumannomyces graminis var. tritici isolate HN12 expressing C1 genetic cluster assessed as reduction in fungal colony diameter after 4 days; details: isolate HN12, HN12, 96 h
Gaeumannomyces tritici [22] = experiment: Antifungal activity against sithiofam-sensitive Gaeumannomyces graminis var. tritici isolate HN24 expressing C2 genetic cluster assessed as reduction in fungal colony diameter after 4 days; details: isolate HN24, 96 h
Gaeumannomyces tritici [23] = experiment: Antifungal activity against sithiofam-sensitive Gaeumannomyces graminis var. tritici isolate SD05 expressing C2 genetic cluster assessed as reduction in fungal colony diameter after 4 days; details: isolate SD05, 96 h
Gaeumannomyces tritici [24] = experiment: Antifungal activity against sithiofam-sensitive Gaeumannomyces graminis var. tritici isolate JS10 expressing C2 genetic cluster assessed as reduction in fungal colony diameter after 4 days; details: isolate JS10, 96 h
Gaeumannomyces tritici [25] = experiment: Antifungal activity against sithiofam-resistant Gaeumannomyces graminis var. tritici isolate JS05 expressing C1 genetic cluster assessed as reduction in fungal colony diameter after 4 days; details: isolate JS05, 96 h
Gaeumannomyces tritici [26] = experiment: Antifungal activity against sithiofam-sensitive Gaeumannomyces graminis var. tritici isolate SD02 expressing C2 genetic cluster assessed as reduction in fungal colony diameter after 4 days; details: isolate SD02, 96 h
Gaeumannomyces tritici [27] = experiment: Antifungal activity against sithiofam-resistant Gaeumannomyces graminis var. tritici isolate HN16 expressing C1 genetic cluster assessed as reduction in fungal colony diameter after 4 days; details: isolate HN16, 96 h
Gaeumannomyces tritici [28] = experiment: Antifungal activity against sithiofam-sensitive Gaeumannomyces graminis var. tritici isolate AH09 expressing C2 genetic cluster assessed as reduction in fungal colony diameter after 4 days; details: isolate AH09, 96 h
Gaeumannomyces tritici [29] = experiment: Antifungal activity against sithiofam-resistant Gaeumannomyces graminis var. tritici isolate JS09 expressing C1 genetic cluster assessed as reduction in fungal colony diameter after 4 days; details: isolate JS09, 96 h
Gaeumannomyces tritici [30] = experiment: Antifungal activity against sithiofam-resistant Gaeumannomyces graminis var. tritici isolate JS11 expressing C1 genetic cluster assessed as reduction in fungal colony diameter after 4 days; details: isolate JS11, 96 h
Gaeumannomyces tritici [31] = experiment: Antifungal activity against sithiofam-sensitive Gaeumannomyces graminis var. tritici isolate HN21 expressing C2 genetic cluster assessed as reduction in fungal colony diameter after 4 days; details: isolate HN21, 96 h
Gaeumannomyces tritici [32] = experiment: Antifungal activity against sithiofam-sensitive Gaeumannomyces graminis var. tritici isolate HN23 expressing C2 genetic cluster assessed as reduction in fungal colony diameter after 4 days; details: isolate HN23, 96 h
Gaeumannomyces tritici [33] = experiment: Antifungal activity against sithiofam-sensitive Gaeumannomyces graminis var. tritici isolate HN26 expressing C2 genetic cluster assessed as reduction in fungal colony diameter after 4 days; details: isolate HN26, 96 h
Gaeumannomyces tritici [34] = experiment: Antifungal activity against sithiofam-resistant Gaeumannomyces graminis var. tritici isolate JS06 expressing C1 genetic cluster assessed as reduction in fungal colony diameter after 4 days; details: isolate JS06, 96 h
Gaeumannomyces tritici [35] = experiment: Antifungal activity against sithiofam-resistant Gaeumannomyces graminis var. tritici isolate JS07 expressing C1 genetic cluster assessed as reduction in fungal colony diameter after 4 days; details: isolate JS07, 96 h
Gaeumannomyces tritici [36] = experiment: Antifungal activity against sithiofam-sensitive Gaeumannomyces graminis var. tritici isolate JS01 expressing C1 genetic cluster assessed as reduction in fungal colony diameter after 4 days; details: isolate JS01, 96 h
Gaeumannomyces tritici [37] = experiment: Antifungal activity against sithiofam-resistant Gaeumannomyces graminis var. tritici isolate HN27 expressing […] genetic cluster assessed as reduction in fungal colony diameter after 4 days; details: isolate HN27, 96 h

Row | Compound | EC50 (Gaeumannomyces tritici [1]) | EC50 (Gaeumannomyces tritici [2]) | EC50 (Gaeumannomyces tritici [3]) | EC50 (Gaeumannomyces tritici [4]) | EC50 (Gaeumannomyces tritici [5]) | EC50 (Gaeumannomyces tritici [6]) | EC50 (Gaeumannomyces tritici [7]) | EC50 (Gaeumannomyces tritici [8]) | EC50 (Gaeumannomyces tritici [9]) | EC50 (Gaeumannomyces tritici [10]) | EC50 (Gaeumannomyces tritici [11]) | EC50 (Gaeumannomyces tritici [12]) | EC50 (Gaeumannomyces tritici [13]) | EC50 (Gaeumannomyces tritici [14]) | EC50 (Gaeumannomyces tritici [15]) | EC50 (Gaeumannomyces tritici [16]) | EC50 (Gaeumannomyces tritici [17]) | EC50 (Gaeumannomyces tritici [18]) | EC50 (Gaeumannomyces tritici [19]) | EC50 (Gaeumannomyces tritici [20]) | also measured
1 | C=CCNC(=O)c1c([Si](C)(C)C)sc(C)c1C [SILTHIOFAM] | 30.2 µg/mL (≈ 113 µM) | 0.0006 µg/mL (≈ 0.00224 µM) | 0.0004 µg/mL (≈ 0.0015 µM) | 31.9 µg/mL (≈ 119 µM) | 0.0014 µg/mL (≈ 0.00523 µM) | 0.0004 µg/mL (≈ 0.0015 µM) | 29.8 µg/mL (≈ 112 µM) | 82.7 µg/mL (≈ 309 µM) | 0.0003 µg/mL (≈ 0.00112 µM) | 51.8 µg/mL (≈ 194 µM) | 62.4 µg/mL (≈ 233 µM) | 0.0024 µg/mL (≈ 0.00897 µM) | 39.9 µg/mL (≈ 149 µM) | 0.0003 µg/mL (≈ 0.00112 µM) | 0.0004 µg/mL (≈ 0.0015 µM) | 0.0009 µg/mL (≈ 0.00336 µM) | 0.0002 µg/mL (≈ 0.000748 µM) | 0.0008 µg/mL (≈ 0.00299 µM) | 70.2 µg/mL (≈ 263 µM) | 0.0009 µg/mL (≈ 0.00336 µM) | EC50 (Gaeumannomyces tritici [21]): 53 µg/mL (≈ 198 µM); EC50 (Gaeumannomyces tritici [22]): 0.0003 µg/mL (≈ 0.00112 µM); EC50 (Gaeumannomyces tritici [23]): 0.0007 µg/mL (≈ 0.00262 µM); EC50 (Gaeumannomyces tritici [24]): 0.0009 µg/mL (≈ 0.00336 µM); EC50 (Gaeumannomyces tritici [25]): 24.7 µg/mL (≈ 92.2 µM); EC50 (Gaeumannomyces tritici [26]): 0.0036 µg/mL (≈ 0.0135 µM); EC50 (Gaeumannomyces tritici [27]): 28.6 µg/mL (≈ 107 µM); EC50 (Gaeumannomyces tritici [28]): 0.0003 µg/mL (≈ 0.00112 µM); EC50 (Gaeumannomyces tritici [29]): 34.2 µg/mL (≈ 128 µM); EC50 (Gaeumannomyces tritici [30]): 46.8 µg/mL (≈ 175 µM); EC50 (Gaeumannomyces tritici [31]): 0.0005 µg/mL (≈ 0.00187 µM); EC50 (Gaeumannomyces tritici [32]): 0.0009 µg/mL (≈ 0.00336 µM); EC50 (Gaeumannomyces tritici [33]): 0.0018 µg/mL (≈ 0.00673 µM); EC50 (Gaeumannomyces tritici [34]): 111 µg/mL (≈ 417 µM); EC50 (Gaeumannomyces tritici [35]): 24.7 µg/mL (≈ 92.2 µM); EC50 (Gaeumannomyces tritici [36]): 0.0002 µg/mL (≈ 0.000748 µM); EC50 (Gaeumannomyces tritici [37]): 121 µg/mL (≈ 451 µM)
2 | CC1COC(Cn2cncn2)(c2ccc(Oc3ccc(Cl)cc3)cc2Cl)O1 (centres undefined) [DIFENOCONAZOLE] | 0.375 µg/mL (≈ 0.923 µM) | 0.539 µg/mL (≈ 1.33 µM) | 0.359 µg/mL (≈ 0.885 µM) | 0.255 µg/mL (≈ 0.626 µM) | 0.102 µg/mL (≈ 0.251 µM) | 0.129 µg/mL (≈ 0.317 µM) | 0.481 µg/mL (≈ 1.18 µM) | 0.389 µg/mL (≈ 0.958 µM) | 0.401 µg/mL (≈ 0.988 µM) | 0.223 µg/mL (≈ 0.548 µM) | 0.216 µg/mL (≈ 0.533 µM) | 0.0553 µg/mL (≈ 0.136 µM) | 0.301 µg/mL (≈ 0.741 µM) | 0.126 µg/mL (≈ 0.309 µM) | 0.283 µg/mL (≈ 0.697 µM) | 0.53 µg/mL (≈ 1.31 µM) | 0.107 µg/mL (≈ 0.265 µM) | 0.782 µg/mL (≈ 1.93 µM) | 0.288 µg/mL (≈ 0.708 µM) | 0.0988 µg/mL (≈ 0.243 µM) | EC50 (Gaeumannomyces tritici [21]): 0.588 µg/mL (≈ 1.45 µM); EC50 (Gaeumannomyces tritici [22]): 0.111 µg/mL (≈ 0.274 µM); EC50 (Gaeumannomyces tritici [23]): 0.694 µg/mL (≈ 1.71 µM); EC50 (Gaeumannomyces tritici [24]): 0.313 µg/mL (≈ 0.771 µM); EC50 (Gaeumannomyces tritici [25]): 0.213 µg/mL (≈ 0.525 µM); EC50 (Gaeumannomyces tritici [26]): 0.335 µg/mL (≈ 0.825 µM); EC50 (Gaeumannomyces tritici [27]): 1.01 µg/mL (≈ 2.49 µM); EC50 (Gaeumannomyces tritici [28]): 0.142 µg/mL (≈ 0.349 µM); EC50 (Gaeumannomyces tritici [29]): 0.13 µg/mL (≈ 0.32 µM); EC50 (Gaeumannomyces tritici [30]): 0.164 µg/mL (≈ 0.403 µM); EC50 (Gaeumannomyces tritici [31]): 0.254 µg/mL (≈ 0.625 µM); EC50 (Gaeumannomyces tritici [32]): 0.331 µg/mL (≈ 0.816 µM); EC50 (Gaeumannomyces tritici [33]): 0.366 µg/mL (≈ 0.902 µM); EC50 (Gaeumannomyces tritici [34]): 0.223 µg/mL (≈ 0.548 µM); EC50 (Gaeumannomyces tritici [35]): 0.201 µg/mL (≈ 0.495 µM); EC50 (Gaeumannomyces tritici [36]): 0.142 µg/mL (≈ 0.349 µM); EC50 (Gaeumannomyces tritici [37]): 0.226 µg/mL (≈ 0.557 µM)
